Read-outs that look alike come from different tables or passages of the source.
Legend:
[1] = system: barnyard grass Echinochloa crusgalli; test: Petri dish culture, growth inhibition of root and stalk of barnyard grass; format: in vivo; settings: Echinochloa crus-galli, 120 h, 5 days; for inhibition at 1 µg/mL: 1 mg/L; for inhibition at 10 µg/mL: 10 mg/L
Description: (§1) The synthesized compounds were tested for the herbicidal activity on model plants including a monocotyledon (barnyard grass) and a dicotyledon (rape) by the reported Petri dish culture method. The percent inhibitory ratios against the growth of root and stalk of barnyard grass and rape at different dosage concentrations were calculated, and the compounds with appreciable inhibitory potencies are selected and shown in Table 1 and Table 2. Several features of the inhibitory activities can be derived. First, all the compounds have stronger inhibition against the growth of the dicotyledon rape than against the monocotyledon barnyard grass, showing appreciable selectivity.
(§2) The herbicidal activity was examined for the growth inhibition effect of the dicotyledon rape Brassica napus and the monocotyledon barnyard grass Echinochloa crusgalli, using the standard Petri dish test and the pre-emergence treatment procedure. […] Nine mL of the solution was added in a Petri dish of 9 cm diameter and two pieces of filter paper were placed on the dish bottom. Twenty seeds each of rape and barnyard grass were placed on the filter paper. The covered Petri dish was transferred into an artificial climate incubator (MGC-400H, Shantou Keyi Co., Ltd., China), where the conditions were controlled at temperature 23 ± 1 °C, humidity 60 ± 5%, light intensity 10 Klux, and photoperiod 12 h/day. The incubation was continued for 5 days, then the lengths of 10 roots and 10 stems for each type of plant were measured and the mean values were calculated. The percent inhibitory ratios were calculated relative to control plants exposing to distilled water instead of the compound solution.

[2] = system: rape Brassica napus; test: Petri dish culture, growth inhibition of root and stalk of rape; format: in vivo; settings: Brassica napus, 120 h, 5 days; for inhibition at 1 µg/mL: 1 mg/L; for inhibition at 10 µg/mL: 10 mg/L
Description: as §1, §2

[3] = system: rape Brassica napus; test: Concentration-dependent root elongation inhibition of rape (IC50); format: in vivo; settings: Brassica napus
Description: Several representative compounds selected from the 2-phenoxy-4H-3,1-benzoxazin-4-one and 2-phenoxy-3H-quinazolin-4-one groups were tested their concentration dependant activities and the half maximal inhibitory concentrations (IC50 values) are shown in Table 3. Obviously, the 2-phenoxy-4H-3,1-benzoxazin-4-ones 3m and 3o have IC50 values near to that of the commercial herbicidal 2,4-D. More importantly, these molecules consist of 2-phenoxymethyl group with halo substituents both at the 2- and 4- positions of the benzene ring, a similar pattern to the commercial hormone herbicides 2,4-D, clomeprop, and 2,4-DB, as well as the ACCase herbicide diclofop-methyl. […] Moreover, if no halo group exists on the benzene ring, the activity will decrease dramatically. On the other hand, the substructure 4H-3,1-benzoxazin-4-one in this work and the carboxylic group in the commercial phenoxyethanoic and phenoxypropionic acid herbicides play also a crucial role in the contribution to the activities of the compounds, meaning they are active substructures.
The herbicidal activity was examined for the growth inhibition effect of the dicotyledon rape Brassica napus and the monocotyledon barnyard grass Echinochloa crusgalli, using the standard Petri dish test and the pre-emergence treatment procedure. Briefly, the compounds to be tested were dissolved in DMF and emulsified with Tween 80, and the solutions were diluted with water to the concentrations of […], respectively. Nine mL of the solution was added in a Petri dish of 9 cm diameter and two pieces of filter paper were placed on the dish bottom. Twenty seeds each of rape and barnyard grass were placed on the filter paper. The covered Petri dish was transferred into an artificial climate incubator (MGC-400H, Shantou Keyi Co., Ltd., China), where the conditions were controlled at temperature 23 ± 1 °C, humidity 60 ± 5%, light intensity 10 Klux, and photoperiod 12 h/day. The incubation was continued for 5 days, then the lengths of 10 roots and 10 stems for each type of plant were measured and the mean values were calculated. The percent inhibitory ratios were calculated relative to control plants exposing to distilled water instead of the compound solution.

[4] = root growth, read-out: Relative inhibition, root
[5] = stalk growth, read-out: Relative inhibition, stalk
[6] = rape root elongation, Table 3, read-out: IC50 for the root elongation inhibition of rape

Structure (SMILES) | inhibition at 1 µg/mL [1, 4] [%] | inhibition at 1 µg/mL [1, 5] [%] | inhibition at 10 µg/mL [1, 4] [%] | inhibition at 10 µg/mL [1, 5] [%] | inhibition at 1 µg/mL [2, 4] [%] | inhibition at 1 µg/mL [2, 5] [%] | inhibition at 10 µg/mL [2, 4] [%] | inhibition at 10 µg/mL [2, 5] [%] | IC50 [3, 6] [µM] | melting point [°C] | IC50 ([3]; rape root growth, read-out: IC50, inhibitory efficacy against the rape root growth) [µM]
O=c1oc(COc2ccc(Cl)cc2Cl)nc2ccccc12 [3m, 2-((2,4-Dichlorophenoxy)methyl)-4H-3,1-benzoxazin-4-one] | 38.3 | -22.7 | 100 | -0.6 | 96.3 | 77.7 | 100 | 93.8 | 10.3 | 118.5 to 119.3 | 
O=c1oc(COc2ccc(Cl)cc2Cl)nc2cccc(Cl)c12 [3n, 5-Chloro-2-((2,4-dichlorophenoxy)methyl)-4H-benzo[3,1]oxazin-4-one] | 44.4 | 12.8 | 57.5 | -1.9 | 80.5 | 38.7 | 79.2 | 45.9 | 43.5 | 161.9 to 163.2 | 
O=c1oc(COc2ccc(Cl)cc2Cl)nc2ccc(Cl)cc12 [3o, 6-Chloro-2-((2,4-dichlorophenoxy)methyl)-4H-3,1-benzoxazin-4-one] | 73.6 | -29.1 | 89.4 | 14.5 | 93.7 | 66.2 | 100 | 91.4 | 10.7 | 157.9 to 160.1 | 0.0104
O=c1oc(COc2ccc(Cl)cc2Cl)nc2cc(Cl)ccc12 [3p, 7-Chloro-2-((2,4-dichlorophenoxy)methyl)-4H-3,1-benzoxazin-4-one] | 64.3 | 5.9 | 100 | -14.4 | 98 | 82.3 | 100 | 91.4 | 11.1 | 139.6 to 142.5 | 
COc1cc2nc(COc3ccc(Cl)cc3Cl)oc(=O)c2cc1OC [3q, 2-((2,4-Dichlorophenoxy)methyl)-6,7-dimethoxy-4H-3,1-benzoxazin-4-one] | 35.5 | -7.4 | 51.9 | -52.8 | 58.3 | 14.8 | 100 | 85.2 | 142 | 161.9 to 163.2 | 
Nn1c(COc2ccc(Cl)cc2Cl)nc2ccccc2c1=O [4f, 3-Amino-2-((2,4-dichlorophenoxy)methyl)-3H-quinazolin-4-one] | 35 | -5 | 22.2 | -6.6 | 65.6 | 48.1 | 73.4 | 48.1 | 224 | 214.6 to 215.7 | 
COc1cc2nc(COc3ccc(Cl)cc3Cl)n(N)c(=O)c2cc1OC [4j, 3-Amino-2-((2,4-dichlorophenoxy)methyl)-6,7-dimethoxy-3H-quinazolin-4-one] | 7.7 | 8.3 | 60 | 5 | 58.4 | 40.2 | 84.9 | 67.2 | 168 | 272.3 to 273.1 | 
Cn1c(COc2ccc(Cl)cc2)nc2cccc(Cl)c2c1=O [4k, 5-Chloro-2-((4-chlorophenoxy)methyl)-3-methyl-3H-quinazolin-4-one] | 32.2 | 7.5 | 50.9 | 1.5 | 48.8 | 21.6 | 81.9 | 52.9 | 201 | 184.9 to 185.7 | 

Source: paper PMC6268642, “Facile Synthesis and Herbicidal Evaluation of 4H-3,1-Benzoxazin-4-ones and 3H-Quinazolin-4-ones with 2-Phenoxymethyl Substituents” (Molecules, 2012)
